Assay type in all cases: binding
In test [1] the target is T1, CCKBR (Homo sapiens, UniProt P32239).
T1 construct: purchased Promega (in-house HiBiT-GPCR construct library, NanoBRET)
T1 sequence (P32239 1-447): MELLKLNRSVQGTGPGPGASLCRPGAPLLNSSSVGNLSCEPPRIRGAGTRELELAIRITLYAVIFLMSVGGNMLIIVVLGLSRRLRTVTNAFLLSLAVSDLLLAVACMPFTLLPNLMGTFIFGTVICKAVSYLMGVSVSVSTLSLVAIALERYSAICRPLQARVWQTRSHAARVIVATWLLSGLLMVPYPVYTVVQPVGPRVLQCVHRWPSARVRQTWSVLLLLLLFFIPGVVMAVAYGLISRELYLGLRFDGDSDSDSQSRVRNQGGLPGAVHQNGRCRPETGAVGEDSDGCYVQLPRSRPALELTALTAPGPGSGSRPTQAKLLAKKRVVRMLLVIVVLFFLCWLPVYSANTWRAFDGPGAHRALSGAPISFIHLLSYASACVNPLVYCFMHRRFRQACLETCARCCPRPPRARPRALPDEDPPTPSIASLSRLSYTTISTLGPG
The test can be described thus: NanoBRET screen HiBiT-CCKBR in HEK293. To be noted: CCKBR. Put shortly:
(§1)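 Competitive displacement format: low-expressing HiBiT-receptor HEK293 cells incubated 1.5 h at room temperature with tracer (1 or 0.1 μM final) ± 20 μM unlabelled parental compound, then complemented with extracellular LgBiT for NanoBRET.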

In test [2] the target is T2, C5AR1 (Homo sapiens, UniProt P21730).
T2 construct: purchased Promega (in-house HiBiT-GPCR construct library, NanoBRET)
T2 sequence (P21730 1-350): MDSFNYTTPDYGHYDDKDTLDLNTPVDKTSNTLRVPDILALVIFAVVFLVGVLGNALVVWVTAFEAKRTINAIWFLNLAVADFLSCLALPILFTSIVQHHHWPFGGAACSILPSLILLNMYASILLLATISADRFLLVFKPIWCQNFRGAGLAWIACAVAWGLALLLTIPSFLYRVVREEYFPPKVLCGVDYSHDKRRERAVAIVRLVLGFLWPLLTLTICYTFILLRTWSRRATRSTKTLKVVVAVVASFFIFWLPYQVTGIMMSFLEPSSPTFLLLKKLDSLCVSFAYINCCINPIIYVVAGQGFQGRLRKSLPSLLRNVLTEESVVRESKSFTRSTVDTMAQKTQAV
The test can be described thus: NanoBRET screen HiBiT-C5AR1 in HEK293. The note with it: C5AR1. Summed up:
as §1
On the technique in general: Bioluminescence resonance energy transfer reports proximity on the nanometre scale.

Test [3] deals with T3, P2RY4 (Homo sapiens, UniProt P51582).
T3 construct: purchased Promega (in-house HiBiT-GPCR construct library, NanoBRET)
The test can be described thus: NanoBRET screen HiBiT-P2RY4 in HEK293. To be noted: P2RY4. Put shortly:
as §1

In test [4] the target is T4, P2RY12 (Homo sapiens, UniProt Q9H244).
T4 construct: purchased Promega (in-house HiBiT-GPCR construct library, NanoBRET)
Put plainly: NanoBRET screen HiBiT-P2RY12 in HEK293. The note with it: P2RY12. Put shortly:
as §1

Test [5] has as its target T5, PTGER2 (Homo sapiens, UniProt P43116).
T5 construct: purchased Promega (in-house HiBiT-GPCR construct library, NanoBRET)
The test can be described thus: NanoBRET screen HiBiT-PTGER2 in HEK293. To be noted: PTGER2. Put shortly:
as §1

For test [6], the target named is T6, PTGIR (Homo sapiens, UniProt P43119).
T6 construct: purchased Promega (in-house HiBiT-GPCR construct library, NanoBRET)
The test can be described thus: NanoBRET screen HiBiT-PTGIR in HEK293. The note with it: PTGIR. Put shortly:
as §1

The target of test [7] is T7, LHCGR (Homo sapiens, UniProt P22888).
T7 construct: purchased Promega (in-house HiBiT-GPCR construct library, NanoBRET)
The test can be described thus: NanoBRET screen HiBiT-LHCGR in HEK293. To be noted: LHCGR. Summed up:
as §1

The record followed here is PMC8151276, “An Integrated Approach toward NanoBRET Tracers for Analysis of GPCR Ligand Engagement” (Molecules, 2021).

T5 sequence (P43116 whole entry): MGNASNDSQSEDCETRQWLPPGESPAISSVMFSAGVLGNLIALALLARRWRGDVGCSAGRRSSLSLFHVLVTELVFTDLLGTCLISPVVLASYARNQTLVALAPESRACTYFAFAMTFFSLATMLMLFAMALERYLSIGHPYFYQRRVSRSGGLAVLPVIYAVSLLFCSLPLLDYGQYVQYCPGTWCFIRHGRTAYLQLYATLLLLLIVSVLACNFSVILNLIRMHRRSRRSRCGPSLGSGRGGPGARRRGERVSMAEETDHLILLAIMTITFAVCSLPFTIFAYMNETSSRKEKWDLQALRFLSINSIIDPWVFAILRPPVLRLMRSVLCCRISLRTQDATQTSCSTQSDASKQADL
T7 sequence (P22888 27-699): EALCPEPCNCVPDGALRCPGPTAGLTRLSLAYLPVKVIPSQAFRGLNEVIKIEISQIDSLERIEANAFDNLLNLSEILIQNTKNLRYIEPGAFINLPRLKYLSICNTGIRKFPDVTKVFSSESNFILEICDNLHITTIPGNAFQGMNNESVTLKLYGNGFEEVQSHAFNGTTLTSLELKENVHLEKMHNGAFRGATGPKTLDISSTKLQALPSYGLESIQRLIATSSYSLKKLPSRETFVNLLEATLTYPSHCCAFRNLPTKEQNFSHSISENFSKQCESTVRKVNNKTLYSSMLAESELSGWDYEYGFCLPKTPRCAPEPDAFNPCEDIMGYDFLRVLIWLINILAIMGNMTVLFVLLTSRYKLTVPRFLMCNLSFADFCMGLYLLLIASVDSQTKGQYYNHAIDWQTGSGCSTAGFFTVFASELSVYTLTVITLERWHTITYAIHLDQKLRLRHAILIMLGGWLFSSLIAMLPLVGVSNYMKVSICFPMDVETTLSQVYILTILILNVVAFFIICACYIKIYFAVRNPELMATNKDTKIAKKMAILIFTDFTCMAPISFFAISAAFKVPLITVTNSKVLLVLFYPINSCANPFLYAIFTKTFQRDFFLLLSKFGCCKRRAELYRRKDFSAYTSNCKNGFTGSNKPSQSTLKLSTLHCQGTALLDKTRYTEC
T6 sequence (P43119 whole entry): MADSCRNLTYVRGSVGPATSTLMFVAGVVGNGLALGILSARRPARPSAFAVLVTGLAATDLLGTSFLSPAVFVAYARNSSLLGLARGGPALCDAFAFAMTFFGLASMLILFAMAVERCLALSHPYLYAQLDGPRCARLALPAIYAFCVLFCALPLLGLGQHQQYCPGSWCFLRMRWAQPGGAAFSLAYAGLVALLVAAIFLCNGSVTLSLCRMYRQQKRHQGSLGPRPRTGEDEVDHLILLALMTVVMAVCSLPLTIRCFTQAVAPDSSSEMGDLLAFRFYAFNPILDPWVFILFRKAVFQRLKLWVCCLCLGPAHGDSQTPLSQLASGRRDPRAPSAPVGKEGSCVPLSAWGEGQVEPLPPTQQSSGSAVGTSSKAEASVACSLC
T4 sequence (Q9H244 whole entry, one chain of several): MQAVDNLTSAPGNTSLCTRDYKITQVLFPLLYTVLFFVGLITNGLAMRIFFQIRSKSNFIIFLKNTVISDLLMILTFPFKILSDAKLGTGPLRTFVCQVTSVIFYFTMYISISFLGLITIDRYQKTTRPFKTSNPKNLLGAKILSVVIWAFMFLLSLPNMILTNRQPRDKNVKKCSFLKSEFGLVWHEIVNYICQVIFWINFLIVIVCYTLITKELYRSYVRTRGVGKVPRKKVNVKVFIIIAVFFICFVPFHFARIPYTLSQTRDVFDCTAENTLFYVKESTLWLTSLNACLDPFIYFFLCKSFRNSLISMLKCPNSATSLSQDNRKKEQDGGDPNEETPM
T3 sequence (P51582 whole entry): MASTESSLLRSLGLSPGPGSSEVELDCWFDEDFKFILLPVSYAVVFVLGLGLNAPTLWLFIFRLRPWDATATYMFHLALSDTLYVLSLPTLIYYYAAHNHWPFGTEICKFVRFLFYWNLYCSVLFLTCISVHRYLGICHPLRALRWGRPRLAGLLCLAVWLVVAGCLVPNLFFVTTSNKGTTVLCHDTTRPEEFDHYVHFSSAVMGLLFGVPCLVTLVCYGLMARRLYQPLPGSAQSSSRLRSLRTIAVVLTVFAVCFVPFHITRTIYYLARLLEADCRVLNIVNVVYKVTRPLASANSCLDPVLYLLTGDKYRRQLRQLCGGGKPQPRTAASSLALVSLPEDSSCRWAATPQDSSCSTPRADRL

In the case of `O=C(CCOCCOCCOCCOCCNC(=O)CCc1ccc2n1[B-](F)(F)[N+]1=C(c3ccc[nH]3)C=CC1=C2)NCCCN1CCN(C2=Nc3ccccc3Oc3ccc(Cl)cc32)CC1` [Loxapine-a-2-NB590], the “NanoBRET Fold Response” value worked out at 1.05 in test [1] (tracer 0.1μM); 0.98 in test [1] (tracer 1μM); 1.01 in test [2] (tracer 0.1μM); 0.98 in test [2] (tracer 1μM); 0.95 in test [3] (tracer 0.1μM); 1.28 in test [3] (tracer 1μM). In addition, the “NanoBRET Fold Response” value in test [4] (tracer 0.1μM) stood at 0.99; in test [4] (tracer 1μM) it was 0.84; in test [5] (tracer 0.1μM), 1.03; in test [5] (tracer 1μM), 1.03; in test [6] (tracer 0.1μM) it was 0.99; in test [6] (tracer 1μM), 1.04. Also, the “NanoBRET Fold Response” value is listed as 0.97 in test [7] (tracer 0.1μM) and 1.15 in test [7] (tracer 1μM).
For `CCCn1c(=O)c2[nH]c(-c3ccc(OCC(=O)NCCNC(=O)CCOCCNC(=O)c4ccc(CNC(=O)CCc5ccc6n5[B-](F)(F)[N+]5=C(c7ccc[nH]7)C=CC5=C6)cc4)cc3)nc2n(CCC)c1=O` [XAC-3-NB590], the “NanoBRET Fold Response” value in test [1] (tracer 0.1μM) was 1.02; in test [1] (tracer 1μM), 0.85; in test [2] (tracer 0.1μM), 0.95; in test [2] (tracer 1μM), 1.04; in test [3] (tracer 0.1μM) it was 1.07; in test [3] (tracer 1μM), 0.79. Further, the “NanoBRET Fold Response” value is recorded as 0.91 in test [4] (tracer 0.1μM); 1.04 in test [4] (tracer 1μM); 1.04 in test [5] (tracer 0.1μM); 1.09 in test [5] (tracer 1μM); 0.99 in test [6] (tracer 0.1μM); 1.05 in test [6] (tracer 1μM). In addition, the “NanoBRET Fold Response” value in test [7] (tracer 0.1μM) is 1.01; in test [7] (tracer 1μM), 1.00.
As for `CCOC(=O)c1cc(C#N)c(N2CCC(C(=O)NS(=O)(=O)Cc3ccccc3/C=C/C(=O)NCCNC(=O)CCc3ccc4n3[B-](F)(F)[N+]3=C(c5ccc[nH]5)C=CC3=C4)CC2)nc1C` [AZD1283-1-NB590], the “NanoBRET Fold Response” value in test [1] (0.1μM) is listed as 1.18; in test [1] (1μM) it was 1.10; in test [2] (0.1μM), 1.07; in test [2] (1μM), 1.07; in test [3] (0.1μM), 1.05; in test [3] (1μM), 1.12. Also, the “NanoBRET Fold Response” value in test [4] (0.1μM) is 3.11; in test [4] (1μM) it was 2.18; in test [5] (0.1μM), 1.00; in test [5] (1μM), 1.04; in test [6] (0.1μM), 1.04; in test [6] (1μM), 1.07. Also, the “NanoBRET Fold Response” value turned out to be 1.00 in test [7] (0.1μM) and 1.02 in test [7] (1μM).
